Results on 18 compounds are retold here after BindingDB's records for doi:10.1021/jm00079a024 (Roche Products, 1992).

A word on the IC50: it is the concentration that inhibits the measured activity by half. A high value points to lower potency.

Assay [1] addresses Protein kinase C beta type (Rattus norvegicus, UniProt P68403). In words: PKC assay.
Procedure: The activity of PKC, activated by phosphatidylerine and Ca2+, is measured by its ability to transfer phosphate from [gamma-32P]ATP to lysine-rich histone.
The target of assay [2] is cAMP-dependent protein kinase catalytic subunit alpha (Bos taurus, UniProt P00517). In words: PKA assay.
Procedure: The activity of PKA, activated by cAMP, is measured by its ability to transfer phosphate from [gamma-32P]ATP to histone.

The structures appear in SMILES notation.

Protein kinase C beta type, sequence (P68403 whole entry): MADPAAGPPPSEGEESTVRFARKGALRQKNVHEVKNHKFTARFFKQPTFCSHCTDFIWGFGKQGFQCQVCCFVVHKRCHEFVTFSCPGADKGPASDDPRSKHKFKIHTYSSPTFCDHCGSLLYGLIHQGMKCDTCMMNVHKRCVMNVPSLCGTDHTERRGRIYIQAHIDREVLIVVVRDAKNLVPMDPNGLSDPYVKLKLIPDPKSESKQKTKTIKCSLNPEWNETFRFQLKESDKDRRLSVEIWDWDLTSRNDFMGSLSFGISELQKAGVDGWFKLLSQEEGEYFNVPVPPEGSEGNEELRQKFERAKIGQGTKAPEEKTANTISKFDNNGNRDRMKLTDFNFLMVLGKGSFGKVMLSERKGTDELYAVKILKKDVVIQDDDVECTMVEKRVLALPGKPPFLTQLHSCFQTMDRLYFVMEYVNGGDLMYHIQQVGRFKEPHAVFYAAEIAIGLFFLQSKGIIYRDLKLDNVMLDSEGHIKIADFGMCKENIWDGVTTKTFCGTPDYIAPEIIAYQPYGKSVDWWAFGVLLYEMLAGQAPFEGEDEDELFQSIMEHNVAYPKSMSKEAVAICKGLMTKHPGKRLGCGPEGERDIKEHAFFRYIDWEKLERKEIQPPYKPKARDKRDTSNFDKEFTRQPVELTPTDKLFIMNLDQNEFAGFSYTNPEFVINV

`O=C1NC(=O)[C@@H](c2c[nH]c3ccccc23)[C@@H]1c1c[nH]c2ccccc12` [(3R,4R)-3,4-bis(1H-indol-3-yl)pyrrolidine-2,5-dione] returned an IC50 in assay [1] (pH 7.5, 30 °C) of over 100 µM. On to `Cc1cccc(C2=C(c3cn(C)c4ccccc34)C(=O)NC2=O)c1` [3-(1-methyl-1H-indol-3-yl)-4-(3-methylphenyl)-2,5-dihydro-1H-pyrrole-2,5-dione], for which, in assay [2], the concentration for half-maximal inhibition (IC50) was over 100 µM. As for `Cn1cc(C2=C(c3cc4ccccc4n3C)C(=O)NC2=O)c2ccccc21` [3-(1-methyl-1H-indol-2-yl)-4-(1-methyl-1H-indol-3-yl)-2,5-dihydro-1H-pyrrole-2,5-dione], in assay [1] (pH 7.5, 30 °C), the IC50 is over 100 µM. `O=C1NC(=O)[C@@H](c2c[nH]c3ccccc23)[C@H]1c1c[nH]c2ccccc12` [(3R,4S)-3,4-bis(1H-indol-3-yl)pyrrolidine-2,5-dione] returned an IC50 in assay [1] (pH 7.5, 30 °C) of over 100 µM. `Cn1cc(C2=C(c3ccccc3)C(=O)NC2=O)c2ccccc21` [3-(1-methyl-1H-indol-3-yl)-4-phenyl-2,5-dihydro-1H-pyrrole-2,5-dione] gave an IC50 in assay [2] of over 100 µM. `O=C1OC(=O)C(c2c[nH]c3ccccc23)=C1c1c[nH]c2ccccc12` [3,4-bis(1H-indol-3-yl)-2,5-dihydrofuran-2,5-dione] gave an IC50 in assay [1] (pH 7.5, 30 °C) of over 100 µM. The same measure, in the same setting: the same measure for `CN1C(=O)C(c2c[nH]c3ccccc23)=C(c2c[nH]c3ccccc23)C1=O`: over 100 µM. In assay [2], `Cn1cc(C2=C(c3csc4ccccc34)C(=O)NC2=O)c2ccccc21` [3-(1-benzothiophen-3-yl)-4-(1-methyl-1H-indol-3-yl)-2,5-dihydro-1H-pyrrole-2,5-dione] showed an IC50 of over 100 µM. The same measure, in the same setting: then `Cn1cc(C2=C(c3cn(C)c4cccc([N+](=O)[O-])c34)C(=O)NC2=O)c2ccccc21` [3-(1-methyl-1H-indol-3-yl)-4-(1-methyl-4-nitro-1H-indol-3-yl)-2,5-dihydro-1H-pyrrole-2,5-dione], with over 100 µM. `Cn1cc(C2=C(c3ccc(S(C)(=O)=O)cc3)C(=O)NC2=O)c2ccccc21` [3-(4-methanesulfonylphenyl)-4-(1-methyl-1H-indol-3-yl)-2,5-dihydro-1H-pyrrole-2,5-dione] came in with an IC50 in assay [1] of over 100 µM. `Cn1cc(C2=C(c3cc(Cl)cc(Cl)c3)C(=O)NC2=O)c2ccccc21` [3-(3,5-dichlorophenyl)-4-(1-methyl-1H-indol-3-yl)-2,5-dihydro-1H-pyrrole-2,5-dione] returned a concentration for half-maximal inhibition (IC50) in assay [2] of over 100 µM. Regarding `Cn1cc(C2=C(c3cn(Cc4ccccc4)c4ccccc34)C(=O)NC2=O)c2ccccc21` [3-(1-benzyl-1H-indol-3-yl)-4-(1-methyl-1H-indol-3-yl)-2,5-dihydro-1H-pyrrole-2,5-dione], the IC50 in assay [2] (pH 8.5, 37 °C) was over 100 µM. As to `Cn1cc(C2=C(c3cccc(Oc4ccccc4)c3)C(=O)NC2=O)c2ccccc21` [3-(1-methyl-1H-indol-3-yl)-4-(3-phenoxyphenyl)-2,5-dihydro-1H-pyrrole-2,5-dione], the IC50 in assay [1] is over 100 µM. In assay [2], `Cn1cc(C2=C(c3cccc(N)c3)C(=O)NC2=O)c2ccccc21` [3-(3-aminophenyl)-4-(1-methyl-1H-indol-3-yl)-2,5-dihydro-1H-pyrrole-2,5-dione] had an IC50 of over 100 µM. In assay [1], `CSc1ccc(C2=C(c3cn(C)c4ccccc34)C(=O)NC2=O)cc1` [3-(1-methyl-1H-indol-3-yl)-4-[4-(methylsulfanyl)phenyl]-2,5-dihydro-1H-pyrrole-2,5-dione] registered an IC50 of over 50 µM. `Cn1cc(C2=C(c3ccc(Cl)cc3)C(=O)NC2=O)c2ccccc21` [3-(4-chlorophenyl)-4-(1-methyl-1H-indol-3-yl)-2,5-dihydro-1H-pyrrole-2,5-dione]: in assay [1], the IC50 is over 100 µM.

With `Cn1cc(C2=C(c3cn(C)c4ccc(C(=O)O)cc34)C(=O)NC2=O)c2ccccc21` [1-methyl-3-[4-(1-methyl-1H-indol-3-yl)-2,5-dioxo-2,5-dihydro-1H-pyrrol-3-yl]-1H-indole-5-carboxylic acid], in assay [1], the IC50 is over 50 µM.

`Cn1cc(C2=C(c3cccc(Cl)c3)C(=O)NC2=O)c2ccccc21` [3-(3-chlorophenyl)-4-(1-methyl-1H-indol-3-yl)-2,5-dihydro-1H-pyrrole-2,5-dione] gave an IC50 in assay [2] of over 100 µM.
